# Publication PMC7728344, “Pharmacokinetic Characterization of (Poly)phenolic Metabolites in Human Plasma and Urine after Acute and Short-Term Daily Consumption of Mango Pulp” (Molecules, 2020)
# Where two headings read alike, the source gives them in different places.
# Tests used:
# [1] = clinical; format: in vivo, human; parameters: AUC0–24h: concentration or dose not given beside the values
# Description: SPE procedure was conducted to extract and concentrate the (poly)phenolic compounds and their metabolites from the plasma samples. Briefly, plasma samples were thawed on ice and 500 µL plasma was diluted with 1.5 mL of 0.1% formic acid in water with addition of internal standards (2-methylhippuric acid (2 ng/mL), phloridizin (1 ng/mL)) before being loaded on preconditioned SPE cartridges. The cartridges were washed with 0.1% formic acid in water (1 mL) after loading with plasma samples. The elution of the compounds was achieved by 0.1% formic acid in methanol (1 mL) and the eluent was dried under nitrogen gas at room temperature. […] Supernatant was collected in amber HPLC vials before analysis.
# The absorption and elimination of 11 major mango metabolites over 24 h was determined after MP, MP + VC, and VC intake. The plasma concentration/area at each time point was determined by the mean of 13 subjects. The time vs. concentration curves and the time vs. area curves were created using GraphPad Prism (version 8.2.1). […] Tmax is the time (h) when Cmax was achieved. Wilcoxon signed-rank test was used for Tmax analysis due to non-normal distribution. Area under the plasma concentration time curve (AUC0−24h, nmol·h/L) was calculated by the linear trapezoidal method using Microsoft Excel 2013, version 15 [63]. […]
# [2] = Concentration of (poly)phenolic metabolites in fasting urine at baseline, 24 h after single MP beverage and 15th day after 14-day MP intake (UHPLC-QQQ-MS); settings: for Concentration in fasting urine, Mean ± std Error, 0 h (Fasting) / Concentration in fasting urine, Mean ± std Error, 15 Days (Fasting) / Concentration in fasting urine, Mean ± std Error, 24 h (Fasting): in vivo; for concentration at 15 day / concentration at 24 h / concentration at 0 h: human, urine, oral; for concentration at 24 h / concentration at 0 h: 500 g
# From the text: The acute trial was a randomized, 3 arm, within-subject crossover study design (Figure 5A). The trial initiated with 3 days of food record collection to assess background (pre-study) dietary intake followed by counseling to adhere to a diet devoid of mango or its parts and relatively low in polyphenol-rich beverages/foods, which was maintained throughout the duration of the trial. […] In general, subjects were encouraged to follow their “usual” diet with the exception of foods/beverages that may interfere with the outcomes of the study. Food intake diaries and, phone call and email reminders helped subjects maintain compliance throughout the study period. After an initial 7-day run-in period on the limited polyphenol diet, subjects were assigned to a randomization sequence providing 1 of 3 study test beverages (recipes provided in Appendix A, Table A3) on three separate days in a random order: MP (500 g), MP (500 g) + VC (100 mg) or VC (100 mg) beverages. On each study day subjects arrived fasted and well hydrated. After standard admission procedures were completed (e.g., review of compliance with dietary requirements for 3 days prior to study day, dinner meal intake, usual sleep patterns), a catheter was placed by a registered nurse in subjects’ non-dominant arm and a fasting/baseline blood sample was collected (0 h). Subjects were provided with a standard breakfast meal 2 h after the study beverages. The breakfast meal was comprised of a buttermilk biscuit with butter and jelly, and scrambled egg white with shredded white cheddar cheese. After the 6 h blood collection, subjects ate a low polyphenol lunch consisting of dry roasted peanuts and fresh peeled cucumber with ranch dressing (Appendix A, Table A3).
# Spot urine samples were collected in urine collection cups, immediately placed on ice and then aliquoted into individual cryovials. All the samples were stored at −80 °C until analysis.
# A 14-day feeding trial was conducted with the MP only to study the effect of repetitive intake of MP on (poly)phenolic metabolite profiles. Upon completion of the acute trial, subjects were instructed to continue on the low polyphenolic diet for 2 weeks while consuming MP beverages (provided by CNRC) daily in the morning (250 g MP + 50 g water) and evening (250 g MP + 50 g water). On day 14, subjects consumed both beverages (500 g of MP in total) in the morning and reported to the CNRC on the 15th day after an overnight fast to provide a fasting blood and urine sample (Figure 5B). Blood and urine samples were collected as described above and stored at −80 °C until analysis.
# The supernatant was collected and filtered through 0.2 µm polypropylene syringe filter before HPLC analysis.
# The ESI conditions were the same as those used in the UHPLC-Q-TOF analysis. The quantification of the compounds was conducted by multiple-reaction monitoring (MRM) transitions. Spectra were recorded in both positive- and negative-ion mode with capillary voltage of 4500 V and drying gas flow rate of 9 L/min at 200 °C. The sheath gas temperature and flow rate were 300 °C and 11 L/min, respectively. Standards were optimized for collision energies, fragmentor voltages and MRM transitions using Mass Hunter Optimizer. The MRM transition for metabolites were created based on the results from UHPLC-Q-TOF-MS. Standards for plasma analysis were prepared in blank plasma (charcoal-stripped human plasma obtained from Bioreclamation IVT) for matrix match and for urine analysis were prepared in SMP.
# The flow rate was maintained at 0.4 mL/min and the injection volume was 5 μL. The mobile phase consisted of acidified water (0.1% formic acid) (A) and acidified acetonitrile (0.1% formic acid) (B). The gradient for the separation of compounds was as follows: 5 to 5% B from 0 to 1 min; 10% B at 3 min; 15% B at 7 min; 15% B at 9 min; 20% B at 10 min; 20% B at 11 min; 25% B at 12 min; 30% B at 13 min; 30% B at 14 min; 95% B at 15 min; and back to 5% B at 16 min.
# [3] = human plasma, 0−24 h, after VC (vitamin C 100 mg) beverage, mean ± standard error, read-out: Cmax
# [4] = human plasma, after VC beverage, mean ± standard error
molecule,measurement,setting,value
"O=c1c2cc(O)c(O)cc2oc2cc(O)c([C@@H]3O[C@H](CO)[C@@H](O)[C@H](O)[C@H]3O)c(O)c12 [Compound C11, mangiferin]",time within which cleared from the bloodstream,[1]; after mango intake,6 to 8 h
same,content in plasma (as observed from areas) after MP and MP + VC vs. VC beverage alone,[1]; area vs. time profile 0−24 h,significantly higher
same,plasma concentration relative to limit of quantitation,[1]; human plasma after test beverages intake,below the LOQ
same,Tmax,"[1]; human, plasma, oral, 500 g, after mango intake, read-out: time to reach maximum concentration/area in plasma",1 to 2 h
same,difference in plasma concentrations/areas after MP + VC beverage compared to MP beverage alone,"[1]; increase observed, statistical outcome",not statistically significant
COc1cc(/C=C/C(=O)O)ccc1O [Ferulic acid],"Concentration in fasting urine, Mean ± std Error, 0 h (Fasting)",[2],0.5 ± 0.1 µM
same,"Concentration in fasting urine, Mean ± std Error, 15 Days (Fasting)",[2],0.4 ± 0.1 µM
same,"Concentration in fasting urine, Mean ± std Error, 24 h (Fasting)",[2],0.4 ± 0.1 µM
O=C(O)CNC(=O)c1ccccc1 [Hippuric acid],concentration at 15 day,[2],2020 ± 242 µM
same,concentration at 24 h,[2],3710 ± 582 µM
COC(=O)CNC(=O)c1ccccc1 [Methyl hippurate],"Concentration in fasting urine, Mean ± std Error, 0 h (Fasting)",[2],2.8 ± 2.3 µM
same,"Concentration in fasting urine, Mean ± std Error, 15 Days (Fasting)",[2],6.3 ± 1.7 µM
same,"Concentration in fasting urine, Mean ± std Error, 24 h (Fasting)",[2],7.8 ± 2.1 µM
COc1cc(C(=O)O)cc(OC)c1O [Syringic acid],concentration at 15 day,[2],1.7 ± 0.2 µM
same,concentration at 0 h,[2],3.6 ± 0.4 µM
same,concentration at 24 h,[2],5.9 ± 0.8 µM
COc1cc(C(=O)O)ccc1O [Vanillic acid],concentration at 15 day,[2],4.1 ± 1 µM
same,concentration at 0 h,[2],4.9 ± 0.9 µM
same,concentration at 24 h,[2],4.4 ± 0.7 µM
O=C(O)/C=C/c1cccc(O)c1 [m-Coumaric acid],"Concentration in fasting urine, Mean ± std Error, 0 h (Fasting)",[2],0.8 ± 0.1 µM
same,"Concentration in fasting urine, Mean ± std Error, 15 Days (Fasting)",[2],0.7 ± 0.1 µM
same,"Concentration in fasting urine, Mean ± std Error, 24 h (Fasting)",[2],0.7 ± 0.1 µM
O=C(O)/C=C/c1ccccc1O [o-Coumaric acid],concentration at 15 day,[2],0.5 ± 0.1 µM
same,concentration at 0 h,[2],0.9 ± 0.1 µM
same,concentration at 24 h,[2],0.9 µM
O=C(O)C=Cc1ccc(O)cc1 [p-Coumaric acid],concentration at 15 day,[2],0.3 µM
same,concentration at 0 h,[2],0.5 ± 0.1 µM
same,concentration at 24 h,[2],0.4 ± 0.1 µM
methylgallic acid [Compound C3],Cmax,[1]; [3],0.0048 ± 0.0007 µM
same,AUC0–24h,[1]; [4],0.0259 ± 0.0019 µM·h
same,AUC0–24h,"[1]; human, in vivo",0.1611 ± 0.0136 µM·h
same,Cmax,"[1]; human, in vivo",0.0545 ± 0.0049 µM
same,Tmax,"[1]; human, in vivo",2.2 ± 0.3 h
same,difference in plasma concentrations/areas after MP + VC beverage compared to MP beverage alone,[1]; in vivo,not statistically significant
methylgallic acid sulfate [Compound C4],Cmax,[1]; [3],0.0063 ± 0.0016 µM
same,AUC0–24h,[1]; [4],0.0247 ± 0.003 µM·h
same,AUC0–24h,"[1]; human, in vivo",1.6558 ± 0.274 µM·h
same,Cmax,"[1]; human, in vivo",0.824 ± 0.131 µM
same,Tmax,"[1]; human, in vivo",2.2 ± 0.2 h
same,difference in plasma concentrations/areas after MP + VC beverage compared to MP beverage alone,[1]; in vivo,not statistically significant
methylpyrogallol glucuronide [Compound C9],Tmax,[1]; [4],8.0 ± 2.3 h
methylpyrogallol sulfate isomer 1 [Compound C6],Cmax,[1]; [3],0.0358 ± 0.0095 µM
same,AUC0–24h,[1]; [4],0.1295 ± 0.036 µM·h
methylpyrogallol sulfate isomer 2 [Compound C7],Cmax,[1]; [3],0.0766 ± 0.0249 µM
same,AUC0–24h,[1]; [4],0.2166 ± 0.0545 µM·h
